Legend:
[1] = Pd(0) Larock indole macrocyclisation (aryl C-Br + TES-alkyne); Pd(OAc)2 0.5 eq, tBu3P·HBF4 1.0 eq, DIPEA 10 eq for 54; 32 by previously reported procedure; conditions: the molecule shown is the open-chain precursor, 110.0 °C
[2] = Pd(0) Larock indole macrocyclisation (aryl C-Br + TES-alkyne, ArNHAc; forms Trp C3a-C3 and N1-C2 bonds); Pd(OAc)2 0.5 eq, tBu3P·HBF4 1.0 eq, DIPEA 10 eq; conditions: the molecule shown is the open-chain precursor; 16-membered ring; toluene; 20.0 mM; 110.0 °C; 12.0 h; 5 steps

CC[Si](C#CC[C@H](NC(=O)OC(C)(C)C)C(=O)N[C@@H](C)C(=O)N[C@@H](CC(C)C)C(=O)N[C@@H](Cc1ccc(OC)c(-c2ccc(Br)c(N)c2)c1)C(=O)OC)(CC)CC [Boc-Pra(TES)-Ala-Leu-Tyr(OMe, 3-(3-NH2-4-Br-phenyl))-OMe]
ring closure, isolated yield ([1]; 20-membered ring;, 12.0 h): 79%

CC[Si](C#CC[C@H](NC(=O)[C@@H]1CCCN1C(=O)[C@H](Cc1ccc(OC)c(-c2ccc(NC(C)=O)c(Br)c2)c1)NC(=O)OC(C)(C)C)C(=O)OC)(CC)CC [Boc-Tyr(OMe, 3-(4-NHAc-3-Br-phenyl))-Pro-Pra(TES)-OMe]
ring closure, isolated yield ([1]; 16-membered ring;): 45%

CC[Si](C#CC[C@H](NC(=O)[C@@H]1CCCN1C(=O)[C@H](Cc1cc(F)cc(-c2ccc(NC(C)=O)c(Br)c2)c1)N1C(=O)c2ccccc2C1=O)C(=O)OC)(CC)CC [Phth-Phe(5-F, 3-(4-NHAc-3-Br-phenyl))-Pro-Pra(TES)-OMe]
ring closure, yield over several steps [2]: 23%

CC[Si](C#CC[C@H](NC(=O)[C@@H]1CCCN1C(=O)[C@H](Cc1cccc(-c2ccc(NC(C)=O)c(Br)c2)c1)N1C(=O)c2ccccc2C1=O)C(=O)OC)(CC)CC [Phth-Phe(3-(4-NHAc-3-Br-phenyl))-Pro-Pra(TES)-OMe]
ring closure, yield over several steps [2]: 30%

CC[Si](C#CC[C@H](NC(=O)[C@@H]1CCCN1C(=O)[C@H](Cc1ccc(C)c(-c2ccc(NC(C)=O)c(Br)c2)c1)N1C(=O)c2ccccc2C1=O)C(=O)OC)(CC)CC [Phth-Phe(4-Me, 3-(4-NHAc-3-Br-phenyl))-Pro-Pra(TES)-OMe]
ring closure, yield over several steps [2]: 39%

CC[Si](C#CC[C@H](NC(=O)[C@@H]1CCCN1C(=O)[C@H](Cc1ccc(F)c(-c2ccc(NC(C)=O)c(Br)c2)c1)NC(=O)OC(C)(C)C)C(=O)OC)(CC)CC [Boc-Phe(4-F, 3-(4-NHAc-3-Br-phenyl))-Pro-Pra(TES)-OMe]
ring closure, yield over several steps [2]: 31%

Source: article PMC13250620
